The record followed here is paper PMC12627627 (Nature Communications, 2025).

SMILES strings stand for the structures. Several values for one entry are separate records, joined by “and”; a condition that tells them apart may be missing. Identical values can stand only once.

The target of the assay is T1, WT RyR1 (Oryctolagus cuniculus, UniProt P11716).
T1 construct: expressed in transfected cells
The assay is described as follows: Ca2+-dependent [3H]ryanodine binding, microsomes. The assay is classed as biochemical. The following applies: for [3H]ryanodine binding (B/Bmax): Fig. 5C source data, RI-2 100 μM, single replicates. The method, then:
The assay was performed as previously described[44],[45] with minor modifications. Briefly, microsomes from HEK293 cells stably expressing WT RyR1 were incubated with 5 nM [³H]ryanodine for 5 h at 25 °C in a medium containing 0.17 M NaCl, 20 mM MOPSO (pH 7.0), 2 mM dithiothreitol, 1 mM β,γ-methyleneadenosine 5′-triphosphate, and free Ca²⁺ buffered with 10 mM EGTA at varying concentrations. Free Ca²⁺ levels were calculated using WEBMAXC […][46]. Protein-bound [³H]Ryanodine (B) was isolated by filtration through polyethyleneimine-treated GF/B filters (Whatman) using a Micro 96 Cell Harvester (Skatron Instruments). Nonspecific binding was assessed by adding 20 µM unlabeled ryanodine. The maximum binding capacity of [³H]ryanodine (Bmax) was determined via Scatchard plot analysis with various concentrations (3–20 nM) of [³H]ryanodine in a high-salt medium containing 1 M NaCl. The resulting B/Bmax values represent the average activity of the cells.

T1 sequence (P11716 whole entry): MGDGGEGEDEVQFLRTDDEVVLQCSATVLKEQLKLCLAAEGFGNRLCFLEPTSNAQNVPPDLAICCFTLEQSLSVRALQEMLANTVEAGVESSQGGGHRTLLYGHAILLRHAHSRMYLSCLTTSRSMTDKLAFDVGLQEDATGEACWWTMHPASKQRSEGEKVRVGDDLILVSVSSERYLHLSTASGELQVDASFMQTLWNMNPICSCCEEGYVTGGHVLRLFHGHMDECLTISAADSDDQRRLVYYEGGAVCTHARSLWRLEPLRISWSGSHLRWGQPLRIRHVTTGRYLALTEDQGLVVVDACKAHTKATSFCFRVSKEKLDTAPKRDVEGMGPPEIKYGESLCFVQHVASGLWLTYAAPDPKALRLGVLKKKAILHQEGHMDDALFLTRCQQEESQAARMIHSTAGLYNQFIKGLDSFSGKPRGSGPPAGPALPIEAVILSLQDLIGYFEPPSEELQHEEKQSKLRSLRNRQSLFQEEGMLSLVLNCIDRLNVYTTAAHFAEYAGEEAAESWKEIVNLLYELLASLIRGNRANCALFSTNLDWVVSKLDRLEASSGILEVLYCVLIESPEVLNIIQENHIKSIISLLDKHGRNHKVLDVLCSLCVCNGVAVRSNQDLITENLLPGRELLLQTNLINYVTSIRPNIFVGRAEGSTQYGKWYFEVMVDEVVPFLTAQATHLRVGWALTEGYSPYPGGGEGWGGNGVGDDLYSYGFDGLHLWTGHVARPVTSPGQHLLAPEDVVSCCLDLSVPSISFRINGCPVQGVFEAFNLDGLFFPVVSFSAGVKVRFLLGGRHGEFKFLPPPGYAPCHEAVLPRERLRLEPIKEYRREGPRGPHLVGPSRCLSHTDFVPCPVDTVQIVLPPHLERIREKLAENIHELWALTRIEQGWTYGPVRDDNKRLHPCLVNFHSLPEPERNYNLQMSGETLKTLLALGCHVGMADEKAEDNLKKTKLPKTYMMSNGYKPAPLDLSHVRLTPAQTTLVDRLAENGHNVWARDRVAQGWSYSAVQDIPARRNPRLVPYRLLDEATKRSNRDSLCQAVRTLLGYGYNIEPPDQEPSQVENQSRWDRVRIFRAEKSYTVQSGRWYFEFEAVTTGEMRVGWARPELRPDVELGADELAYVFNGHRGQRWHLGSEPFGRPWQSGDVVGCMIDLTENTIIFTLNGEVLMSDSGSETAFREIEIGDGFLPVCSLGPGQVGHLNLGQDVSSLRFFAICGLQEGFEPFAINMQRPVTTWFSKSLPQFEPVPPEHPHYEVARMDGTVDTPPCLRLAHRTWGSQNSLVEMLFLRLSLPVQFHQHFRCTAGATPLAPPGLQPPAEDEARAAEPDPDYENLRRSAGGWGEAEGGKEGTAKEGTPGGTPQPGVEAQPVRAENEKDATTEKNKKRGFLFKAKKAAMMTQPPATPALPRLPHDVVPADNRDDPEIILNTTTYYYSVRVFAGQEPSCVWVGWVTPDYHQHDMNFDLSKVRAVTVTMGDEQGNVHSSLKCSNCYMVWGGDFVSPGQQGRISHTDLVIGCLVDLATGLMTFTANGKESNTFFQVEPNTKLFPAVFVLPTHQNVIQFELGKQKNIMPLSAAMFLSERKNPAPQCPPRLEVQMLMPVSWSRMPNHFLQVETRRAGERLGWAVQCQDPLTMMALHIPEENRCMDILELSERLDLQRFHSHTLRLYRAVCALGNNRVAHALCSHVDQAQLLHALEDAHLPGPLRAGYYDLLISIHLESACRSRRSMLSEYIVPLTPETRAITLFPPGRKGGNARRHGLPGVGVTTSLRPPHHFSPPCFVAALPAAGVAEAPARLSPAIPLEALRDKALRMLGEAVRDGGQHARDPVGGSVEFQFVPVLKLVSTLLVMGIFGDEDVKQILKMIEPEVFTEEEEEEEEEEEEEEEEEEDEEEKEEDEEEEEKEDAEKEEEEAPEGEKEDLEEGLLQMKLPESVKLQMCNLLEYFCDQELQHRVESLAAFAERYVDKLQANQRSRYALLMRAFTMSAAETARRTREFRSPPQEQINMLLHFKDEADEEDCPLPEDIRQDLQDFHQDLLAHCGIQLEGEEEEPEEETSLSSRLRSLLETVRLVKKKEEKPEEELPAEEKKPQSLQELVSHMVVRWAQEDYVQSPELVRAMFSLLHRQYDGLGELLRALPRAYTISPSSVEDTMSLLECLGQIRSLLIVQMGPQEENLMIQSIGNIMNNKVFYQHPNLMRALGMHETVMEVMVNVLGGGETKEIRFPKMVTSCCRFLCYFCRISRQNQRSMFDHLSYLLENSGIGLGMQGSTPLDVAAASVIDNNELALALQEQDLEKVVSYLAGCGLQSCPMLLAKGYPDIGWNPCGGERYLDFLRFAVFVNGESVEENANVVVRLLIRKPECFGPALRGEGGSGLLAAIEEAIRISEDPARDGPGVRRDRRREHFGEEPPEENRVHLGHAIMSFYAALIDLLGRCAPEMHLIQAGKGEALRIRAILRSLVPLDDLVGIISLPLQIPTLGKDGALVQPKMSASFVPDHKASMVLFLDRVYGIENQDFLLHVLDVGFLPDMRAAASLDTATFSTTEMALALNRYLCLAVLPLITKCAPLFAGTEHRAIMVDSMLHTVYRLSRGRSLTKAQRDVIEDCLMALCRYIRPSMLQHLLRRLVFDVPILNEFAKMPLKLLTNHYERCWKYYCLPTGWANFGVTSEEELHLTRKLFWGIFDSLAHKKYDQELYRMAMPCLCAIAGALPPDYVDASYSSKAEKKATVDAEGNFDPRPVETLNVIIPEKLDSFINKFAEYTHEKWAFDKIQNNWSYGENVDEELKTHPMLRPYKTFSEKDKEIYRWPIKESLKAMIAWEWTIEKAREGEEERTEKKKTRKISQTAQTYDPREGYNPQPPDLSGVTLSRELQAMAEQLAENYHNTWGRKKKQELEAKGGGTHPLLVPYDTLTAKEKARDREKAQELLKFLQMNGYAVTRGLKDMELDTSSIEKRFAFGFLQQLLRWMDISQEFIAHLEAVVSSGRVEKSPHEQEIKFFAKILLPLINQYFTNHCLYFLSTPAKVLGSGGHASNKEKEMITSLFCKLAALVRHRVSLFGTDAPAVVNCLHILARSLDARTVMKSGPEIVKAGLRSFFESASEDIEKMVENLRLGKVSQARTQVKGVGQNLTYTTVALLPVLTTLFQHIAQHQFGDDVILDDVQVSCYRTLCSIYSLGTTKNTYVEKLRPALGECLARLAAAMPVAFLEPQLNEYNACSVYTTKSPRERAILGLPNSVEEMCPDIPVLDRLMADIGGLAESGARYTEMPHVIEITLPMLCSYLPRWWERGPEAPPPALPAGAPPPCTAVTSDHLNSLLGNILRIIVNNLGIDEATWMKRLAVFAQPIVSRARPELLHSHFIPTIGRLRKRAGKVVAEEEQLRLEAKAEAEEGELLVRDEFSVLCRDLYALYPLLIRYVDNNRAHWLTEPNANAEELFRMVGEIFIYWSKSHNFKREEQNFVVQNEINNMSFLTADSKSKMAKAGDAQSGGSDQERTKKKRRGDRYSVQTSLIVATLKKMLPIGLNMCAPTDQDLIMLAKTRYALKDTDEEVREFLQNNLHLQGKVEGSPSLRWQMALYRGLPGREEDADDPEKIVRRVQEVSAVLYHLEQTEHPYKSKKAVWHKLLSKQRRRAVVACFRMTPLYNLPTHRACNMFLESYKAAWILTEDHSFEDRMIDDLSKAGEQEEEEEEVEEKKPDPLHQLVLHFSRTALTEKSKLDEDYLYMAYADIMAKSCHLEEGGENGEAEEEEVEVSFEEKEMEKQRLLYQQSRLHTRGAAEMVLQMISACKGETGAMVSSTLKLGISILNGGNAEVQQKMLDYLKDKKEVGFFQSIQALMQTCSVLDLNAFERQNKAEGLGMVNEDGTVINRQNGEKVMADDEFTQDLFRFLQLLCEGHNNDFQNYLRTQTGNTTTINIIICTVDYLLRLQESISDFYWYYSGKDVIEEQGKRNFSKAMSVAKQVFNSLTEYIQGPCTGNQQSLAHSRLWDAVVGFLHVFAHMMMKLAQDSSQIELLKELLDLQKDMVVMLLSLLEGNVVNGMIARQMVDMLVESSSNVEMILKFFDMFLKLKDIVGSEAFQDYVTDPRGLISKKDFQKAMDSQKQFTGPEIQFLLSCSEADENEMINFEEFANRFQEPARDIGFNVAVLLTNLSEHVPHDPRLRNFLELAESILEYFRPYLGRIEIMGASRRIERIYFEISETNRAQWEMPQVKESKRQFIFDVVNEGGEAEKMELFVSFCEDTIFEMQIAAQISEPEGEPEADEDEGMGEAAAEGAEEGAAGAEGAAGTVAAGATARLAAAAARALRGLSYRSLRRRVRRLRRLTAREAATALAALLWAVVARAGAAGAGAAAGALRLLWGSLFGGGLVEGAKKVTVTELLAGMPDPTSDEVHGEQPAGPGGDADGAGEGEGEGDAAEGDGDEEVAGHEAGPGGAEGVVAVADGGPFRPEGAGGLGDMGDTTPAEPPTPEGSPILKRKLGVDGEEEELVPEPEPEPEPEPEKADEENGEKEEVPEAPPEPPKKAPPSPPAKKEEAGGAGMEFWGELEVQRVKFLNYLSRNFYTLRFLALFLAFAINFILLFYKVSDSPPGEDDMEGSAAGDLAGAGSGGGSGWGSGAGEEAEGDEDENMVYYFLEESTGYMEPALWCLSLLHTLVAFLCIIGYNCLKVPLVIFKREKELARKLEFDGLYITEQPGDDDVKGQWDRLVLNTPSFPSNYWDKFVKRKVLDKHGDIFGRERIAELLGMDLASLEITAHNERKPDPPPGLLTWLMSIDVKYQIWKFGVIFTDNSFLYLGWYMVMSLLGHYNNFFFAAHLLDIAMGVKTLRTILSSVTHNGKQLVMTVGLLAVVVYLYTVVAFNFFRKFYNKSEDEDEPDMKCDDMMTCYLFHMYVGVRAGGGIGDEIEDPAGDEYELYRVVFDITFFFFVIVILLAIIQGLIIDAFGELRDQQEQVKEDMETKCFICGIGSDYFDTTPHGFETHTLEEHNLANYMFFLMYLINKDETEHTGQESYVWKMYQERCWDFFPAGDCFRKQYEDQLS

For the compound `O=C(C[C@@H](NCCCO)C(=O)O)Nc1ccc2ccccc2c1` [RI-2], the “effect on Ca2+-dependent [3H]ryanodine binding” value (100 uM RI-2) is “inhibitory effect”. The “[3H]ryanodine binding (B/Bmax)” value was 0.002952 (2×) and 0.002725 and -0.000227 (pCa 2.04); 0.005451 and 0.006359 and 0.002952 and 0.002725 (pCa 2.67); 0.01453 and 0.0134 and 0.008857 (2×) (pCa 3.39); 0.02816 and 0.03452 and 0.02475 and 0.02703 (pCa 4.03); 0.04474 and 0.04315 and 0.03702 and 0.03429 (pCa 4.66); 0.04565 and 0.04292 and 0.03884 and 0.03702 (pCa 5.03). The “[3H]ryanodine binding (B/Bmax)” value is, setting by setting: (pCa 5.42) 0.0293 and 0.03838 and 0.02362 and 0.0243; (pCa 6) 0.009312 and 0.01272 and 0.009084 and 0.003634; (pCa 6.54) 0.005678 and 0.003861 and -0.000454 and 0.00159; (pCa 6.97) 0.004088 and 0.006813 and 0.002044 and 0.0009084; (pCa 7.49) 0.001136 and 0.002044 (2×) and 0.001363.
